Measurements taken from patent US5254533A, “Elfamycin” (Rhone-Poulenc Rorer S.A., priority 1990, dated 1993).

Columns and labels:
[1] = system: Klebsiella pneumoniae Caroli; assay: MIC, antibacterial activity (agar dilution); assay type: cell-based; details: Mueller Hinton Agar, about 18 h at about 37° C
[2] = Use as a growth factor in piglets (Example 6); assay type: in vivo, weaned Large-White Belgian Landrace crossed piglets; details: for Final weight: control 24.7
Text: 130 weaned Large-White Belgian Landrace crossed piglets were used. The experiment began 2 weeks after weaning of the animals, i.e. at a mean age of 42 days.
The animals received the experimental feed ad libitum in the form of granules 2.5 mm in diameter.
The animals were weighed at the beginning, middle and end of the experiment. The consumptions were noted every week.
Tables 7, 8 and 9 respectively show the percentage composition and the characteristics of the diets, the percentage composition of the CMV and the percentage composition of the premixes.
The results are shown in Table 10 for the period 0-14 days, Table 11 for the period 14-28 days and Table 12 for the period 0-28 days.

## C/C=C\C=C\C1OC(O)(C(CC)C(=O)NC/C=C/C=C(\C)C(OC)C(C)C2CC(O)C(/C=C/C=C/C=C/C(=O)O)O2)C(O)C(O)C1(C)C (stereo not shown) [formula (II)]
[1]
  MIC: > 300 µg/mL
[2]; 10 ppm in feed, 0-14 days, control 1.76
  Index of consumption: 1.70
[2]; 10 ppm in feed, 0-14 days, control 368
  Weight gain: 418 g/day
[2]; 10 ppm in feed, 0-14 days, control 645
  Consumption: 694 g/day
[2]; 10 ppm in feed, 0-28 days, control 1.80
  Index of consumption: 1.72
[2]; 10 ppm in feed, 0-28 days, control 474
  Weight gain: 533 g/day
[2]; 10 ppm in feed, 0-28 days, control 852
  Consumption: 914 g/day
[2]; 10 ppm in feed, 14-28 days, control 1.84
  Index of consumption: 1.75
[2]; 10 ppm in feed, 14-28 days, control 579
  Weight gain: 648 g/day
[2]; 10 ppm in feed, 14-28 days, control 1059
  Consumption: 1133 g/day
[2]; 10 ppm in feed, Table 11, 14-28 days
  Final weight: 26.4 kg
[2]; 10 ppm in feed, Table 12, 0-28 days
  Final weight: 26.4 kg
[2]; 20 ppm in feed, 0-14 days, control 1.76
  Index of consumption: 1.61
[2]; 20 ppm in feed, 0-14 days, control 368
  Weight gain: 430 g/day
[2]; 20 ppm in feed, 0-14 days, control 645
  Consumption: 689 g/day
[2]; 20 ppm in feed, 0-28 days, control 1.80
  Index of consumption: 1.69
[2]; 20 ppm in feed, 0-28 days, control 474
  Weight gain: 547 g/day
[2]; 20 ppm in feed, 0-28 days, control 852
  Consumption: 927 g/day
[2]; 20 ppm in feed, 14-28 days, control 1.84
  Index of consumption: 1.75
[2]; 20 ppm in feed, 14-28 days, control 579
  Weight gain: 664 g/day
[2]; 20 ppm in feed, 14-28 days, control 1059
  Consumption: 1164 g/day
[2]; 20 ppm in feed, Table 11, 14-28 days
  Final weight: 26.8 kg
[2]; 20 ppm in feed, Table 12, 0-28 days
  Final weight: 26.8 kg
[2]; 40 ppm in feed, 0-14 days, control 1.76
  Index of consumption: 1.70
[2]; 40 ppm in feed, 0-14 days, control 368
  Weight gain: 416 g/day
[2]; 40 ppm in feed, 0-14 days, control 645
  Consumption: 701 g/day
[2]; 40 ppm in feed, 0-28 days, control 1.80
  Index of consumption: 1.70
[2]; 40 ppm in feed, 0-28 days, control 474
  Weight gain: 532 g/day
[2]; 40 ppm in feed, 0-28 days, control 852
  Consumption: 900 g/day
[2]; 40 ppm in feed, 14-28 days, control 1.84
  Index of consumption: 1.70
[2]; 40 ppm in feed, 14-28 days, control 579
  Weight gain: 648 g/day
[2]; 40 ppm in feed, 14-28 days, control 1059
  Consumption: 1099 g/day
[2]; 40 ppm in feed, Table 11, 14-28 days
  Final weight: 26.4 kg
[2]; 40 ppm in feed, Table 12, 0-28 days
  Final weight: 26.4 kg
